Drawing on PubChem BioAssay AID192 (DTP/NCI, 2004), this text covers T/C for 20 compounds.

The test has as its system BDF1 mice, B16 melanoma ip, median survival T/C. Briefly: NCI In Vivo Anticancer Drug Screen. Data for tumor model B16 Melanoma (intraperitoneal) in B6D2F1 (BDF1) mice. The settings on record: endpoint: median survival time, higher = longer survival. An outline of the steps:
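Values are ratios of treated (T) to vehicle-control (C) measurements of survival or tumor size in tumor-bearing mice.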

The mark [1] stands for this setting: dose: 25.0 mg/kg/injection, schedule: Q04DX003 (ip), vehicle: Klucel (hydroxypropylcellulose) (HPC).
Setting [2] is: dose: 50.0 mg/kg/injection, schedule: Q04DX003 (ip), vehicle: Klucel (hydroxypropylcellulose) (HPC).
The mark [3] stands for this setting: dose: 100.0 mg/kg/injection, schedule: Q04DX003 (ip), vehicle: Klucel (hydroxypropylcellulose) (HPC).
[4] abbreviates: dose: 75.0 mg/kg/injection, schedule: Q01DX009 (ip), vehicle: Klucel (hydroxypropylcellulose) (HPC).
Where [5] appears, read: dose: 25.0 mg/kg/injection, schedule: Q01DX009 (ip), vehicle: saline.
[6] abbreviates: dose: 3.12 mg/kg/injection, schedule: Q01DX009 (ip), vehicle: saline.
Where [7] appears, read: dose: 6.25 mg/kg/injection, schedule: Q01DX009 (ip), vehicle: saline.
The mark [8] stands for this setting: dose: 12.5 mg/kg/injection, schedule: Q01DX009 (ip), vehicle: saline.
Setting [9] is: dose: 50.0 mg/kg/injection, schedule: Q01DX009 (ip), vehicle: saline.
Where [10] appears, read: dose: 100.0 mg/kg/injection, schedule: Q01DX009 (ip), vehicle: saline.
Setting [11] is: dose: 50.0 mg/kg/injection, schedule: Q01DX009 (ip), vehicle: saline with Tween-80.
Where [12] appears, read: dose: 100.0 mg/kg/injection, schedule: Q01DX009 (ip), vehicle: saline with Tween-80.
The mark [13] stands for this setting: dose: 200.0 mg/kg/injection, schedule: Q01DX009 (ip), vehicle: saline with Tween-80.

“And” between values parts separate entries of the source, which are not always exact repeats. Identical values can stand only once. Inconclusive results and toxic doses are left out.

For the compound `CC(C)(O)C(I)C[n+]1ccccc1` (stereo unspecified), the T/C is 109 % of control (dose: 100.0 mg/kg/injection, schedule: Q04DX003 (ip), vehicle: saline); 101 % of control (dose: 200.0 mg/kg/injection, schedule: Q04DX003 (ip), vehicle: saline); 114 % of control (dose: 400.0 mg/kg/injection, schedule: Q04DX003 (ip), vehicle: saline).

As for `COC(=O)C[C@](O)(CCC(C)(C)O)C(=O)O[C@@H]1C(OC)=C[C@]23CCCN2CCc2cc4c(cc2[C@H]13)OCO4`, the T/C by setting is: (dose: 0.25 mg/kg/injection, schedule: Q01DX009 (ip), vehicle: saline) 152 % of control; (dose: 1.0 mg/kg/injection, schedule: Q01DX009 (ip), vehicle: saline) 150 % of control; (dose: 2.0 mg/kg/injection, schedule: Q01DX009 (ip), vehicle: saline) 102 % of control; (dose: 32.0 micrograms/kg/injection, schedule: Q01DX009 (ip), vehicle: saline) 104 % of control; (dose: 63.0 micrograms/kg/injection, schedule: Q01DX009 (ip), vehicle: saline) 109 % of control; (dose: 125.0 micrograms/kg/injection, schedule: Q01DX009 (ip), vehicle: saline) 113 % of control.

Turning to `COc1cccc2c1C(=O)c1c(O)c3c(c(O)c1C2=O)CC(O)(/C(C)=N/NC(=O)CCC(=O)N/N=C(\C)C1(O)Cc2c(O)c4c(c(O)c2C(OC2CC(N)C(O)C(C)O2)C1)C(=O)c1c(OC)cccc1C4=O)CC3OC1CC(N)C(O)C(C)O1` (stereo unspecified), the T/C is, setting by setting: (dose: 4.0 mg/kg/injection, schedule: Q01DX001 (ip), vehicle: water) 163 % of control; (dose: 8.0 mg/kg/injection, schedule: Q01DX001 (ip), vehicle: water) 165 % of control and 168 % of control and 172 % of control; (dose: 16.0 mg/kg/injection, schedule: Q01DX001 (ip), vehicle: water) 189 % of control and 292 % of control; (dose: 32.0 mg/kg/injection, schedule: Q01DX001 (ip), vehicle: water) 123 % of control and 293 % of control and 313 % of control; (dose: 64.0 mg/kg/injection, schedule: Q01DX001 (ip), vehicle: water) 315 % of control.

With `CS(=O)(=O)c1ccnc2ccccc12`, the T/C was 91 % of control (dose: 50.0 mg/kg/injection, schedule: Q01DX009 (ip), vehicle: Klucel (hydroxypropylcellulose) (HPC)) and 90 % of control (dose: 100.0 mg/kg/injection, schedule: Q01DX009 (ip), vehicle: Klucel (hydroxypropylcellulose) (HPC)).

Consider `C=CCN(CC=C)c1ccc(N(CC)CC)cc1`, for which the T/C by setting is: under setting [1], 99 % of control; under setting [2], 102 % of control; under setting [3], 88 % of control and 89 % of control.

Consider `Cc1nc(NCc2ccccc2)c2cc[nH]c2n1`, for which the T/C by setting is: (dose: 0.04 mg/kg/injection, schedule: Q01DX009 (ip), vehicle: saline) 116 % of control; (dose: 0.09 mg/kg/injection, schedule: Q01DX009 (ip), vehicle: saline) 123 % of control; (dose: 0.39 mg/kg/injection, schedule: Q01DX009 (ip), vehicle: saline) 113 % of control.

As for `C/C(=C\c1ccccc1Cl)[N+](=O)[O-]`, the T/C was 96 % of control (dose: 37.5 mg/kg/injection, schedule: Q01DX009 (ip), vehicle: Klucel (hydroxypropylcellulose) (HPC)) and 96 % of control under setting [4].

Consider `Nc1cc2[nH]cnc2c(=O)[nH]1`, for which the T/C is, setting by setting: (dose: 12.5 mg/kg/injection, schedule: Q01DX009 (ip), vehicle: suspension in saline) 88 % of control; (dose: 18.8 mg/kg/injection, schedule: Q01DX009 (ip), vehicle: saline) 102 % of control; under setting [5], 92 % of control; (dose: 25.0 mg/kg/injection, schedule: Q01DX009 (ip), vehicle: suspension in saline) 95 % of control; (dose: 37.5 mg/kg/injection, schedule: Q01DX009 (ip), vehicle: saline) 102 % of control; (dose: 50.0 mg/kg/injection, schedule: Q01DX009 (ip), vehicle: suspension in saline) 94 % of control. In addition, the T/C reads like this: (dose: 75.0 mg/kg/injection, schedule: Q01DX009 (ip), vehicle: saline) 107 % of control; (dose: 100.0 mg/kg/injection, schedule: Q01DX009 (ip), vehicle: suspension in saline) 95 % of control; (dose: 150.0 mg/kg/injection, schedule: Q01DX009 (ip), vehicle: saline) 107 % of control; (dose: 200.0 mg/kg/injection, schedule: Q01DX009 (ip), vehicle: suspension in saline) 106 % of control.

As for `CCCCCCCCCCCCCCCCCCOCC(COP(=O)([O-])OCC[N+](C)(C)C)OC` (stereo unspecified), the T/C under setting [6] is 91 % of control, the T/C under setting [7] was 95 % of control, the T/C under setting [8] was 92 % of control and the T/C under setting [5] was 87 % of control.

Take `CN1CCC(CN2c3ccccc3Sc3ccccc32)C1` (stereo unspecified): the T/C was 105 % of control under setting [6]; 89 % of control under setting [7]; 94 % of control under setting [8]; 107 % of control under setting [5]; 92 % of control under setting [9].

Take `Nc1nc(SCc2ccccc2)c2ncn(C3CC(O)C(CO)O3)c2n1` (stereo unspecified): the T/C is, setting by setting: (dose: 4.25 mg/kg/injection, schedule: Q01DX009 (ip), vehicle: saline) 111 % of control; (dose: 8.5 mg/kg/injection, schedule: Q01DX009 (ip), vehicle: saline) 113 % of control; (dose: 17.0 mg/kg/injection, schedule: Q01DX009 (ip), vehicle: saline) 94 % of control; (dose: 34.0 mg/kg/injection, schedule: Q01DX009 (ip), vehicle: saline) 93 % of control.

As for `NCC(=O)c1ccc(O)c(O)c1`, the T/C was 100 % of control under setting [10]; 110 % of control (dose: 200.0 mg/kg/injection, schedule: Q01DX009 (ip), vehicle: saline); 120 % of control (dose: 400.0 mg/kg/injection, schedule: Q01DX009 (ip), vehicle: saline).

`Nc1nc(Nc2ccccc2)nc(C(=O)O)n1`: the T/C under setting [3] is 100 % of control; the T/C (dose: 200.0 mg/kg/injection, schedule: Q04DX003 (ip), vehicle: Klucel (hydroxypropylcellulose) (HPC)) was 97 % of control; the T/C (dose: 400.0 mg/kg/injection, schedule: Q04DX003 (ip), vehicle: Klucel (hydroxypropylcellulose) (HPC)) was 92 % of control.

With `CC(=O)OCC1OC(n2ncc(=O)[nH]c2=O)C(OC(C)=O)C1OC(C)=O` (stereo unspecified), the T/C is, setting by setting: under setting [11], 106 % of control; under setting [12], 91 % of control; under setting [13], 95 % of control; (dose: 400.0 mg/kg/injection, schedule: Q01DX009 (ip), vehicle: saline with Tween-80) 102 % of control; (dose: 800.0 mg/kg/injection, schedule: Q01DX009 (ip), vehicle: saline with Tween-80) 100 % of control.

Take `ClC1CC[N-]CC1.ClC1CC[N-]CC1.O=C(O)CC(=O)O.[Pt+2]`: the T/C was 96 % of control (dose: 12.5 mg/kg/injection, schedule: Q01DX009 (ip), vehicle: saline with Tween-80); 95 % of control (dose: 25.0 mg/kg/injection, schedule: Q01DX009 (ip), vehicle: saline with Tween-80); 96 % of control under setting [11]; 95 % of control under setting [12]; 104 % of control under setting [13].

Regarding `Cc1cc(C)c(NC(=O)Nc2ccccc2C)c(C)c1`, the T/C was 102 % of control under setting [1], 97 % of control under setting [2] and 90 % of control under setting [3].

For `Cc1cc(C)[nH]c(=O)n1`, the T/C was 115 % of control under setting [5], 101 % of control under setting [9] and 102 % of control under setting [10].

Turning to `O=[N+]([O-])c1cc(Cl)c(Cl)cc1NS(=O)(=O)c1ccccc1`, the T/C by setting is: (dose: 150.0 mg/kg/injection, schedule: Q01DX009 (ip), vehicle: saline with Tween-80) 100 % of control; (dose: 300.0 mg/kg/injection, schedule: Q01DX009 (ip), vehicle: saline with Tween-80) 90 % of control.

Turning to `CC(=O)Nc1cc(NC(C)=O)cc(N(CCCl)CCCl)c1`, the T/C is 119 % of control (dose: 6.25 mg/kg/injection, schedule: Q01DX009 (ip), vehicle: water) and 115 % of control (dose: 12.5 mg/kg/injection, schedule: Q01DX009 (ip), vehicle: water).

As for `Cc1ccc(NC(=O)c2ccccc2Cl)cc1Cl`, the T/C runs as follows: under setting [4], 103 % of control; (dose: 150.0 mg/kg/injection, schedule: Q01DX009 (ip), vehicle: Klucel (hydroxypropylcellulose) (HPC)) 103 % of control; (dose: 300.0 mg/kg/injection, schedule: Q01DX009 (ip), vehicle: Klucel (hydroxypropylcellulose) (HPC)) 100 % of control.
